Laboratory results: US20050267071A1, “Inhibitors of coronavirus protease and methods of use thereof” (Fulcrum Pharmaceuticals, Inc., priority 2003, published 2005)

What follows are compounds tested against T1, SARS-associated coronavirus protease 3CL^pro (Severe acute respiratory syndrome coronavirus, UniProt P0C6U8) (assay: not given).
Type: binding

SMILES	ΔH (Binding Enthalpy of Selected Compounds to 3CL^pro)
O=C(Oc1ccc(OC(=O)c2cc(B(O)O)cc([N+](=O)[O-])c2)cc1)c1cc(B(O)O)cc([N+](=O)[O-])c1 [FL-078, 3-Borono-5-nitrobenzoic acid 1,4-phenylene ester]	-4900 cal/mol
O=C(Oc1ccc(OC(=O)c2cc(B(O)O)cc([N+](=O)[O-])c2)c(Cl)c1)c1cc(B(O)O)cc([N+](=O)[O-])c1 [FL-079, 3-Borono-5-nitrobenzoic acid 2-chloro-1,4-phenylene ester]	-1700 cal/mol
O=C(Oc1cccc(OC(=O)c2cc(B(O)O)cc([N+](=O)[O-])c2)c1)c1cc(B(O)O)cc([N+](=O)[O-])c1 [FL-106, 3-Borono-5-nitrobenzoic acid 1,3-phenylene ester]	-5300 cal/mol
O=C(OCc1ccccc1COC(=O)c1cc(B(O)O)cc([N+](=O)[O-])c1)c1cc(B(O)O)cc([N+](=O)[O-])c1 [FL-136, 3-Borono-5-nitrobenzoic acid 1,2-benzenedimethanol ester]	-9200 cal/mol

Each compound was assayed against T1, SARS-associated coronavirus protease 3CL^pro (assay: biochemical).

SMILES	Ki
O=C(Oc1ccc(OC(=O)c2cc(B(O)O)cc([N+](=O)[O-])c2)cc1)c1cc(B(O)O)cc([N+](=O)[O-])c1 [FL-078, 3-Borono-5-nitrobenzoic acid 1,4-phenylene ester]	6.7 ± 0.9 µM
O=C(Oc1ccc(OC(=O)c2cc(B(O)O)cc([N+](=O)[O-])c2)c(Cl)c1)c1cc(B(O)O)cc([N+](=O)[O-])c1 [FL-079, 3-Borono-5-nitrobenzoic acid 2-chloro-1,4-phenylene ester]	23.7 ± 3 µM
O=C(Oc1c(Cl)cccc1Cl)c1cc(B(O)O)cc([N+](=O)[O-])c1 [FL-080, 3-(2,6-Dichlorophenoxycarbonyl)-5-nitrophenylboronic acid]	62 ± 6 µM
O=C(Oc1ccccc1F)c1cc(B(O)O)cc([N+](=O)[O-])c1 [FL-081, 3-(2-Fluorophenoxycarbonyl)-5-nitrophenylboronic acid]	179 ± 70 µM
O=C(Oc1c(F)cccc1F)c1cc(B(O)O)cc([N+](=O)[O-])c1 [FL-082, 3-(2,6-Difluorophenoxycarbonyl)-5-nitrophenylboronic acid]	158 ± 109 µM
O=C(O)c1cc(NC(=O)c2ccccc2F)cc(B(O)O)c1 [FL-083, 3-(2-Fluorobenzamido)-5-carboxylphenylboronic acid]	104 ± 38 µM
O=C(Nc1cc(B(O)O)cc([N+](=O)[O-])c1)c1ccccc1F [FL-084, 3-(2-Fluorobenzamido)-5-nitrophenylboronic acid]	> 1000 µM
O=C(Oc1ccc(F)cc1)c1cc(B(O)O)cc([N+](=O)[O-])c1 [FL-085, 3-(4-Fluorophenoxycarbonyl)-5-nitrophenylboronic acid]	95 ± 30 µM
O=C(OCc1c(Cl)cccc1Cl)c1cc(B(O)O)cc([N+](=O)[O-])c1 [FL-086]	> 1000 µM
O=C(Oc1ccncc1)c1cc(B(O)O)cc([N+](=O)[O-])c1 [FL-087, 3-(4-pyridyloxycarbonyl)-5-nitro-phenylboronic acid]	66 ± 2 µM
Nc1cc(B(O)O)cc(C(=O)O)c1 [FL-088, 3-amino-5-carboxylphenylboronic acid]	63 ± 14 µM
O=C(Oc1cccnc1Cl)c1cc(B(O)O)cc([N+](=O)[O-])c1 [FL-089, 3-(2-Chloro-3-pyridyloxycarbonyl)-5-nitrophenylboronic acid]	241 ± 85 µM
O=C(OC1c2ccccc2CC1Br)c1cc(B(O)O)cc([N+](=O)[O-])c1 (stereo not shown) [FL-090, 3-(2-Bromo-1-indanoxycarbonyl)-5-nitrophenylboronic acid]	> 1000 µM
O=C(Oc1ccccc1)c1cc(B(O)O)cc([N+](=O)[O-])c1 [FL-092, 3-Phenoxycarbonyl-5-nitrophenylboronic acid]	15.5 ± 6.5 µM
O=C(OCc1cccc([N+](=O)[O-])c1)c1cc(B(O)O)cc([N+](=O)[O-])c1 [FL-094, 3-(3-Nitrobenzyloxycarbonyl)-5-nitrophenylboronic acid]	39 ± 5 µM
O=C(OCc1cccc(Cl)c1)c1cc(B(O)O)cc([N+](=O)[O-])c1 [FL-095, 3-(3-Chlorobenzyloxycarbonyl)-5-nitrophenylboronic acid]	91.8 ± 8.8 µM
O=C(Oc1ccccc1Br)c1cc(B(O)O)cc([N+](=O)[O-])c1 [FL-096, 3-(2-Bromophenoxycarbonyl)-5-nitro-phenylboronic acid]	137 ± 61 µM
O=C(OC(C(=O)c1ccccc1)c1ccccc1)c1cc(B(O)O)cc([N+](=O)[O-])c1 (stereo not shown) [FL-097, 3-(1-Benzoyl-1-Phenylmethoxycarbonyl)-5-nitrophenylboronic acid]	153 ± 58 µM
O=C(Oc1cccc(B(O)O)c1)c1c(Cl)cccc1Cl [FL-099, 3-(2,6-dichlorophenylcarbonyloxy)phenyl boronic acid]	> 1000 µM
O=C(Oc1cccc(B(O)O)c1)c1cc(B(O)O)cc([N+](=O)[O-])c1 [FL-100, 3-(3-Boronophenoxycarbonyl)-5-nitrophenylboronic acid]	190 ± 100 µM
O=C(OCc1cccc(B(O)O)c1)c1cc(B(O)O)cc([N+](=O)[O-])c1 [FL-101, 3-(3-Boronobenzyloxycarbonyl)-5-nitrophenylboronic acid]	21.7 ± 3.27 µM
O=C(Oc1ccc(OC(=O)c2ccc(B(O)O)cc2F)c(Cl)c1)c1ccc(B(O)O)cc1F [FL-103, 4-Borono-2-fluorobenzoic acid 2-chloro-1,4-phenylene ester]	39.1 ± 2.1 µM
O=C(Oc1c(Cl)cccc1[N+](=O)[O-])c1ccc(B(O)O)cc1F [FL-104, 4-(2-Chloro-6-nitrophenoxycarbonyl)-3-fluorophenylboronic acid]	18 ± 1 µM

SMILES	Ki
O=C(Oc1cccc(OC(=O)c2cc(B(O)O)cc([N+](=O)[O-])c2)c1)c1cc(B(O)O)cc([N+](=O)[O-])c1 [FL-106, 3-Borono-5-nitrobenzoic acid 1,3-phenylene ester]	8.5 ± 0.5 µM
O=C(Oc1c(Cl)cc(Cl)cc1[N+](=O)[O-])c1cc(B(O)O)cc([N+](=O)[O-])c1 [FL-107, 3-(2,4-Dichloro-6-nitro-phenoxycarbonyl)-5-nitro-phenylboronic acid]	6.9 ± 0.3 µM
O=C(Nc1cc(B(O)O)cc([N+](=O)[O-])c1)c1c(Cl)cccc1Cl [FL-108, 3-(2,6-Dichlorobenzamido)-5-nitrophenylboronic acid]	15 ± 7 µM
O=C(Nc1cc(B(O)O)ccc1Cl)c1c(Cl)cccc1Cl [FL-109, 3-(2,6-Dichlorobenzamido)-4-chlorophenylboronic acid]	61.5 ± 19.7 µM
Cc1ccc(B(O)O)cc1NC(=O)c1c(Cl)cccc1Cl [FL-110, 3-(2,6-Dichlorobenzamido)-4-methylphenylboronic acid]	37 ± 9.7 µM
O=[N+]([O-])c1cc(NS(=O)(=O)c2ccccc2)cc(B(O)O)c1 [FL-114, 3-benzenesulfonamido-5-nitrophenylboronic acid]	49.8 ± 4.4 µM
O=C(Oc1cc(=O)oc2ccccc12)c1cc(B(O)O)cc([N+](=O)[O-])c1 [FL-133, 3-(4-Coumarinoxycarbonyl)-5-nitrophenylboronic acid]	> 1000 µM
O=C(OCc1ccccc1COC(=O)c1cc(B(O)O)cc([N+](=O)[O-])c1)c1cc(B(O)O)cc([N+](=O)[O-])c1 [FL-136, 3-Borono-5-nitrobenzoic acid 1,2-benzenedimethanol ester]	8 ± 1.7 µM
O=C(Oc1c(Cl)cc(Cl)cc1Cl)c1cc(B(O)O)cc([N+](=O)[O-])c1 [FL-139, 3-(2,4,6-Trichlorophenoxycarbonyl)-5-nitro-phenylboronic acid]	73.3 ± 38 µM
O=C(Oc1c(Cl)c(Cl)c(OC(=O)c2cc(B(O)O)cc([N+](=O)[O-])c2)c(Cl)c1Cl)c1cc(B(O)O)cc([N+](=O)[O-])c1 [FL-141, 3-Borono-5-nitrobenzoic acid 2,3,5,6-tetrachloro-1,4-phenylene ester]	39.3 ± 11.7 µM
O=C(OCc1cccc2ccccc12)c1cc(B(O)O)cc([N+](=O)[O-])c1 [FL-148, 3-(1-Naphthalenemethoxycarbonyl)-5-nitrophenylboronic acid]	21.5 ± 8.7 µM
O=C(OC(c1ccccc1)c1ccccc1)c1cc(B(O)O)cc([N+](=O)[O-])c1 [FL-149, 3-(1,1-Diphenylmethoxycarbonyl)-5-nitrophenylboronic acid]	313 ± 170 µM
O=C(Oc1ccc2ccccc2c1)c1cc(B(O)O)cc([N+](=O)[O-])c1 [FL-151, 3-(2-Naphthoxycarbonyl)-5-nitrophenylboronic acid]	16.6 ± 6 µM
O=C(Oc1cccc(B(O)O)c1)c1ccc(C(=O)Oc2cccc(B(O)O)c2)cc1 [FL-156, 1,4-Benzenedicarboxylic acid, di 3-boronophenyl ester]	33 ± 9.4 µM
O=C(Oc1cc(OC(=O)c2cc(B(O)O)cc([N+](=O)[O-])c2)cc(OC(=O)c2cc(B(O)O)cc([N+](=O)[O-])c2)c1)c1cc(B(O)O)cc([N+](=O)[O-])c1 [FL-164, Tris-(3-borono-5-nitrobenzoic acid), 1,3,5-trihydroxybenzene ester]	79.6 ± 14.1 µM
O=C(OCCN(CCOC(=O)c1cc(B(O)O)cc([N+](=O)[O-])c1)CCOC(=O)c1cc(B(O)O)cc([N+](=O)[O-])c1)c1cc(B(O)O)cc([N+](=O)[O-])c1 [FL-165, Tris(3-borono-5-nitrobenzoic acid), triethanolamine ester]	50.6 ± 21.5 µM
O=C(Oc1ccc(OC(=O)c2cc(B(O)O)cc([N+](=O)[O-])c2)c2ccccc12)c1cc(B(O)O)cc([N+](=O)[O-])c1 [FL-167, 3-Borono-5-nitrobenzoic acid, 1,4-dihydroxynaphthalene ester]	10.2 ± 2.2 µM
CC(C)(C)c1cc(OC(=O)c2cc(B(O)O)cc([N+](=O)[O-])c2)ccc1OC(=O)c1cc(B(O)O)cc([N+](=O)[O-])c1 [FL-169, 3-Borono-5-nitrobenzoic acid, 2-tert-butyl-1,4-phenylene ester]	32.7 ± 2.5 µM
CCOC(=O)[C@H](Cc1ccccc1)NC(=O)c1cc(B(O)O)cc([N+](=O)[O-])c1 [FL-170, 3-borono-5-nitrobenzoyl-L-phenylalanine ethyl ester]	10.6 ± 7.5 µM
O=C(O)c1cc(O)cc(B(O)O)c1 [FL-172, (3-carboxy-5-hydroxyphenyl)boronic acid]	3.5 ± 3.9 µM
O=C(NCc1ccccc1)c1cccc(B(O)O)c1 [FL-1010, 3-(Benzylcarbamoyl)phenylboronic acid]	84 ± 45 µM
O=C(OCc1ccccc1)c1cc(B(O)O)cc([N+](=O)[O-])c1 [FL-1201, 3-Benzyloxycarbonyl-5-nitrophenylboronic acid]	35.8 ± 11.5 µM
